Literature values in publication PMC3085280 (Tetrahedron, 2009).

Tested on: κ-opioid

COC(=O)[C@@H]1C[C@H](OC(C)=O)C(=O)[C@H]2[C@@]1(C)CC[C@H]1C(=O)O[C@H](c3ccoc3)C[C@]21C [Compound 1, Salvinorin A]
κ-opioid agonist activity: potent and selective κ-opioid agonist
